# Patent US20210317490A1, “ANTICANCER COMPOUNDS” (priority 2017, published 2021)
# What was measured:
# [1] = test system: MDA-MB-231; experiment: SRB colorimetric cytotoxicity assay, MDA-MB-231; format: cell-based, human; conditions: MDA-MB-231, 72 hours treatment; for GI50 / LC50 (concentration giving 50% net cell killing): Homo sapiens; for GI50: 50% cell growth inhibition; for TGI: total cell growth inhibition
# From the text: (§1) The aim of this assay is to evaluate the in vitro cytostatic (ability to delay or arrest tumor cell growth) or cytotoxic (ability to kill tumor cells) activity of the samples being tested.
# (§2) A colorimetric assay, using sulforhodamine B (SRB) reaction has been adapted to provide a quantitative measurement of cell growth and viability (following the technique described by Skehan et al. J. Natl. Cancer Inst. 1990, 82, 1107-1112).
# (§3) This form of assay employs 96-well cell culture microplates following the standards of the American National Standards Institute and the Society for Laboratory Automation and Screening (ANSI SLAS 1-2004 (R2012) 10/12/2011). All the cell lines used in this study were obtained from the American Type Culture Collection (ATCC) and derive from different types of human cancer.
# (§4) Cells were maintained in Dulbecco's Modified Eagle Medium (DMEM) supplemented with 10% Fetal Bovine Serum (FBS), 2mM L-glutamine, 100 U/mL penicillin and 100 U/mL streptomycin at 37 ° C., 5% CO2 and 98% humidity. For the experiments, cells were harvested from subconfluent cultures using trypsinization and resuspended in fresh medium before counting and plating.
# (§5) Cells were seeded in 96 well microtiter plates, at 5000 cells per well in aliquots of 150 μL and allowed to attach to the plate surface for 18 hours (overnight) in drug free medium. After that, one control (untreated) plate of each cell line was fixed (as described below) and used for time zero reference value. Culture plates were then treated with test compounds (50 μL aliquots of 4× stock solutions in complete culture medium plus 4% DMSO) using ten 2/5 serial dilutions (concentrations ranging from 10 to 0.003 μg/mL) and triplicate cultures (1% final concentration in DMSO). After 72 hours treatment, the antitumor effect was measured by using the SRB methodology: Briefly, cells were washed twice with PBS, fixed for 15 min in 1% glutaraldehyde solution at room temperature, rinsed twice in PBS, and stained in 0.4% SRB solution for 30 min at room temperature. Cells were then rinsed several times with 1% acetic acid solution and air-dried at room temperature. SRB was then extracted in 10 mM trizma base solution and the absorbance measured in an automated spectrophotometric plate reader at 490 nm. Effects on cell growth and survival were estimated by applying the NCI algorithm (Boyd M R and Paull K D. Drug Dev. Res. 1995, 34, 91-104).
# (§6) The values obtained in triplicate cultures were fitted to a four-parameter logistic curve by nonlinear regression analysis. Three reference parameters were calculated (according to the NCI algorithm) by automatic interpolation of the curves obtained from such fitting: GI50=compound concentration that produces 50% cell growth inhibition, as compared to control cultures; TGI=total cell growth inhibition (cytostatic effect), as compared to control cultures, and LC50=compound concentration that produces 50% net cell killing cytotoxic effect).
# [2] = test system: A549; experiment: SRB colorimetric cytotoxicity assay, A549; format: cell-based, human; conditions: A549, 72 hours treatment; for TGI: total cell growth inhibition; for GI50 / CC50: Homo sapiens; for GI50: 50% cell growth inhibition; for CC50: 50% net cell killing, read-out: LC50 (the source's name)
# From the text: as §1, §2, §3, §4, §5, §6
# [3] = test system: PSN-1; experiment: SRB colorimetric cytotoxicity assay, PSN1; format: cell-based, human; conditions: for GI50 / CC50: Homo sapiens, PSN1, PSN-1, 72 hours treatment; for GI50: 50% cell growth inhibition; for CC50: 50% net cell killing, read-out: LC50 (the source's name); for TGI: PSN-1, 72 hours treatment, total cell growth inhibition
# From the text: as §1, §2, §3, §4, §5, §6
# [4] = test system: HT29; experiment: SRB colorimetric cytotoxicity assay, HT29; format: cell-based, human; conditions: for TGI: HT29, 72 hours treatment, total cell growth inhibition; for GI50 / CC50: Homo sapiens, HT-29, HT29, 72 hours treatment; for GI50: 50% cell growth inhibition; for CC50: 50% net cell killing, read-out: LC50 (the source's name)
# From the text: as §1, §2, §3, §4, §5, §6
# [5] = test system: P-388 murine leukemia cell line; conditions: cited from earlier work; for IC50 against the P-388 murine leukemia cell line: mycalamides, J. Nat. Prod. 2000, 63, 704
# [6] = toxicity lower than pederin; cited from earlier work
# [7] = test system: HeLa cells; conditions: cited from earlier work
# [8] = test system: B104 cells; conditions: cited from earlier work
# [9] = test system: EUE, E6D, HeLa, KB, Hep, AS, MEF, CE, BHK, Z1 and M1 cell lines; conditions: within four days, in all the cell lines analyzed; cited from earlier work
compound,measurement,setting,value
C=C1CC(OC)(C(O)C(=O)NC(OC)C2CC(O)C(C)(C)C(CC(CO)OC)O2)OC(C)C1C (stereo not shown) [Compound 1],GI50,[1],2.66 nM
same,LC50 (concentration giving 50% net cell killing),[1],10.8 nM
same,TGI,[1],5.31 nM
same,TGI,[2],7.97 nM
same,GI50,[2],2.04 nM
same,CC50,[2],36.8 nM
same,GI50,[3],2.66 nM
same,CC50,[3],19.4 nM
same,TGI,[3],5.72 nM
same,TGI,[4],8.99 nM
same,GI50,[4],2.86 nM
same,CC50,[4],> 204 nM
C=C1CC(OC)(C(O)C(=O)NC(OC)C2CC(O)C(C)(C)C(CC(O)CO)O2)OC(C)C1C (stereo not shown) [Compound 2],GI50,[1],8.2 nM
same,LC50 (concentration giving 50% net cell killing),[1],31.5 nM
same,TGI,[1],15.6 nM
same,TGI,[2],25.2 nM
same,GI50,[2],7.15 nM
same,CC50,[2],122 nM
same,GI50,[3],8.62 nM
same,CC50,[3],77.8 nM
same,TGI,[3],19.1 nM
same,TGI,[4],44.2 nM
same,GI50,[4],8.83 nM
same,CC50,[4],> 2100 nM
C=C1CC(OC)(C(OC(C)=O)C(=O)NC(OC)C2CC(OC(C)=O)C(C)(C)C(CC(COC(C)=O)OC)O2)OC(C)C1C (stereo not shown) [Compound 3],GI50,[1],309 nM
same,LC50 (concentration giving 50% net cell killing),[1],> 16200 nM
same,TGI,[1],2440 nM
same,TGI,[2],877 nM
same,GI50,[2],115 nM
same,CC50,[2],8610 nM
same,GI50,[3],162 nM
same,CC50,[3],3900 nM
same,TGI,[3],666 nM
same,TGI,[4],926 nM
same,GI50,[4],162 nM
same,CC50,[4],> 16200 nM
C=C1C[C@](OC)([C@H](O)C(=O)N[C@H]2OCO[C@H]3[C@@H]2O[C@H](C[C@H](O)CO)C(C)(C)[C@@H]3OC)O[C@H](C)[C@@H]1C [Mycalamide A],IC50 against the P-388 murine leukemia cell line,[5],3.0 ng/mL
C=C1C[C@](OC)([C@H](O)C(=O)N[C@H]2OCO[C@H]3[C@@H]2O[C@H](CC(CO)OC)C(C)(C)[C@@H]3OC)O[C@H](C)[C@@H]1C (stereo partly shown) [Mycalamide B],IC50 against the P-388 murine leukemia cell line,[5],0.7 ng/mL
C=C1C[C@](OC)([C@H](O)C(=O)NC[C@H]2O[C@H](CO)C(C)(C)[C@H](O)[C@H]2O)O[C@H](C)[C@@H]1C [Mycalamide C],IC50 against the P-388 murine leukemia cell line,[5],95.0 ng/mL
C=C1C[C@](OC)([C@H](O)C(=O)N[C@H]2OCO[C@H]3[C@@H]2O[C@H](C[C@H](O)CO)C(C)(C)[C@@H]3O)O[C@H](C)[C@@H]1C [Mycalamide D],IC50 against the P-388 murine leukemia cell line,[5],35 ng/mL
C=C1C[C@](OC)([C@H](O)C(=O)N[C@H]2OCO[C@H]3[C@@H]2O[C@H](C[C@H](O)CCC/C=C/C=C/C=C/C(=O)N[C@@H](CCCNC(=N)N)C(=O)O)C(C)(C)[C@@H]3OC)O[C@H](C)[C@@H]1C [Onnamide A],IC50 against the murine P388 cell line,"[5]; U.S. Pat. No. 4,801,606",1 ng/mL
C=C1C[C@](OC)([C@H](O)C(=O)NC[C@@H]2C[C@H](O)C(C)(C)[C@@H](C[C@H](O)CCC/C=C/C=C/C=C/C(=O)N[C@@H](CCCNC(=N)N)C(=O)O)O2)O[C@H](C)[C@@H]1C [Onnamide E],cytotoxic activity against the P388 cell line,[5]; at a concentration of 0.4 μg/mL,did not show cytotoxic activity
"C=C1C[C@](O)([C@H](O)C(=O)N[C@@H](OC)[C@@H]2C[C@@H](O)C(C)(C)[C@@H](C[C@@H](COC)OC)O2)O[C@H](C)[C@@H]1C [Pseudopederin, pseudopederin]",active dose relative to pederin,[6],10 times higher
C=C1C[C@](OC)([C@H](O)C(=O)N[C@@H](O)[C@@H]2C[C@@H](O)C(C)(C)[C@@H](C[C@H](O)CO)O2)O[C@H](C)[C@@H]1C [diaphorin],IC50,[7],~2000 nM
same,IC50,[8],~1000 nM
C=C1C[C@](OC)([C@H](O)C(=O)N[C@@H](OC)[C@@H]2C[C@@H](O)C(C)(C)[C@@H](CC(COC)OC)O2)O[C@H](C)[C@@H]1C (stereo partly shown) [pederin],concentration sufficient to cause cellular death,[9],~3 nM
